Literature values, collected in patent publication US20190083649A1, “CROSSLINKED POLYMER NANO-ASSEMBLIES AND USES THEREOF” (University of Massachusetts, priority 2017, published 2019).

## C=C(C)C(=O)OCCN(C(C)C)C(C)C [DPA, 2-(diisopropylamino)ethyl methacrylate]
  pKa of the protonated form of the amine: around 6.2
